These results are taken from patent publication US10281451B2, “Method of determining the viability of at least one cell” (The Regents of the University of Michigan, priority 2012, dated 2019).

This test has as its system EVPOME tissue-engineered constructs (primary human oral keratinocytes). The test can be described thus: Quantitative histology scoring (H&E) of rapamycin-treated tissue-engineered constructs. The format is cell-based. From the text: A section was sliced across the construct, near the edge, fixed in 10% phosphate buffered formalin, and embedded in paraffin for hematoxylin and eosin (H&E) histology and immunohistochemistry (IHC). All the engineered tissues were sectioned for histological assessment and some for IHC imaging. Some engineered tissues were randomly selected for punch biopsies for WST-1 assay. The remaining intact constructs were non-invasively assessed with label-free optical imaging. For each construct, three sites were randomly selected for optical imaging. A tissue-engineered construct consists of three layers: keratin, living cellular, and dermal equivalent layer. Thus, for each site, one to two optical images were measured at lower and upper depths for the proliferating basal layer and the differentiating cellular layer respectively.
10 batches tissue-engineered constructs manufactured with cells from 10 independent patients were studied: 5 batches for the rapamycin experiment and 5 batches for the thermal-stress experiment. For the rapamycin experiment, 2 nM rapamycin was added in the medium at the cell culture stage for five days prior to tissue-stage culture and/or the tissue culture stage. Therefore, a total of four experimental conditions were created in the rapamycin experiment: • 1. Control+control: no rapamycin was added to the cultures during the two stages. • 2. Control+rapa: no rapamycin was added to the first cell culture stage medium; rapamycin was added to the second tissue culture stage medium. • 3. Rapa+control: rapamycin was added to the first cell culture stage medium; no rapamycin was added to the second tissue culture stage medium. • 4. Rapa+rapa: rapamycin was added to the medium used in both the culture stages.
All H&E histology slides were assessed by a panel of three blinded expert readers. Classification criteria were previously developed and detailed, where a viability score of 1 (least viable), 2, 3, 4, or 5 (most viable) was used. The classification criteria included the basal cell layer health, the construct cellular organization, and the keratin layer structural quality. The readers individually assigned a score to each EVPOME histology slide, while blinded to the construct condition and to the other readers' scores.
Quantitative histology scoring was performed to assess tissue morphology. Two groups of cultured cells were categorized: well-growing culture and poorly-growing culture. The well-growing and the poorly-growing cultures were defined by their control+control histology scores. A control+control score >3 is defined as well-growing. A control+control score <=3 is defined as poorly growing.

For `CO[C@H]1C[C@@H]2CC[C@@H](C)[C@@](O)(O2)C(=O)C(=O)N2CCCC[C@H]2C(=O)O[C@H]([C@H](C)C[C@@H]2CC[C@@H](O)[C@H](OC)C2)CC(=O)[C@H](C)/C=C(\C)[C@@H](O)[C@@H](OC)C(=O)[C@H](C)C[C@H](C)/C=C/C=C/C=C/1C` [Rapamycin], the histology score result by setting is: (control+rapa construct (2 nM rapamycin in tissue culture stage only), poorly-growing culture, score 1 to 5) “<= 3”; (rapa+control construct (2 nM rapamycin in cell culture stage only), poorly-growing culture, score 1 (least viable) to 5 (most viable)) 4.7; (rapa+rapa construct (2 nM rapamycin in both culture stages), poorly-growing culture, score 1 to 5) “<= 3”; (well-growing culture, all four constructs incl. rapa+control, control+rapa, rapa+rapa, score 1 to 5) greater than 3.
